Laboratory results taken from publication PMC6755732, “Structural, Biochemical, and In Vivo Characterization of MtrR-Mediated Resistance to Innate Antimicrobials by the Human Pathogen Neisseria gonorrhoeae” (Journal of Bacteriology, 2019).
Read-outs that look alike come from different tables or passages of the source.

Tests used:
[1] = molecular target: T1, MtrR (Neisseria gonorrhoeae, UniProt P39897); assay: Isothermal titration calorimetry, wild-type MtrR with bile salts; assay type: binding; settings: ITC, 25°C, 20 μM MtrR in cell, 250 μM ligand in syringe
T1 construct: A codon optimized gene of MtrR was synthesized by GenScript and cloned into the; hexahistidine tag with TEV protease site (N, cleaved yes); made in house
Procedure: Purified MtrR was dialyzed extensively against buffer containing 20 mM Tris [pH 8.0], 200 mM NaCl, 10% glycerol, and 1 mM TCEP overnight at 4°C. The stock solutions and the necessary dilutions of the bile salts were prepared using this dialysis buffer. Titrations with 20 μM MtrR in the cell and 250 μM ligand in the syringe were performed using a VP-ITC microcalorimeter (Microcal Inc.). All measurements were conducted at 25°C with a stirring speed of 200 rpm. After subtraction of germane blank data, the titration data were analyzed using the program ORIGIN 5.0.
Protein purification for Isothermal Titration Calorimetry experiments and mutant […]
A codon optimized gene of MtrR was synthesized by GenScript and cloned into the pMCSG7 vector in- frame with the N-terminal Hexa- histidine tag and tobacco etch virus (TEV) protease cleavage site. This construct was used as the template for site- directed mutagenesis and to generate wild- type data in supplemental f igures 5-6 and Isothermal Titration Calorimetry data. This protein was overexpressed and purified as described in the “Materials and Methods” of the document, except the he xa -histidine tag MtrR was cleaved by TEV protease following NiNTA affinity chromatography. Cleaved MtrR was purified from tagged MtrR and cleaved hexa- histidine tag by Ni- NTA aff inity chromatography and then further purified by size exclusion chromatography (S200).

[2] = molecular target: T2, MtrR-mtrCDE promoter (Neisseria gonorrhoeae, UniProt P39897); assay type: biochemical; settings: versus no bile salt
T2 construct: nearly all 210 residues of each protomer observed, with the exception of residues 1 through 7; hexahistidine tag (thrombin-cleavable) (cleaved yes); made in house
Procedure: Thus, to rule out any effect of alkaline pH on MtrR-DNA interactions, we buffered the CAPS used in the FP assay to pH 8.0 before testing its effect on DNA binding.
Fluorescence polarization-based DNA binding experiments were performed with a Panvera Beacon 2000 fluorescence polarization system (Invitrogen) utilizing 5′-fluorescein-labeled DNA. Polarization (P) of such 5′-labeled DNA increases as a function of protein binding, and equilibrium dissociation constants are determined by curve fitting the values of millipolarization (P × 10^−3) units against the protein concentration. To determine the effects of various ligands on MtrR-DNA binding, 1 nM 5′-fluoresceinated oligodeoxynucleotide duplexes containing the mtrC operator site in 1 ml binding buffer (20 mM Tris HCl [pH 8.0], 100 mM NaCl, and 2.5% glycerol) were titrated against increasing concentrations of purified MtrR in the presence or absence of the indicated concentrations of bile salt, and the resulting changes in polarization were measured. All the samples were excited at 490 nm, and their polarized emissions were measured at 530 nm. All the data were plotted using Kaleidagraph (Synergy Software) and Prism (GraphPad Software), and the resulting plots were fitted to the following equation: P = {(Pbound − Pfree)[protein]/(KD + [protein])} + Pfree, where P is the polarization measured at a given protein concentration, Pfree is the initial polarization of the free ligand, Pbound is the maximum polarization of specifically bound ligand, KD is the equilibrium dissociation constant, and [protein] is the protein concentration. Nonlinear least-squares analysis was used to determine Pbound, and Kd. The reported binding constants are the average values from at least three independent experimental measurements.

[3] = molecular target: T3, MtrR-DNA complex (Neisseria gonorrhoeae, UniProt P39897); assay type: biochemical; settings: EMSA, wild-type MtrR, mtrC promoter oligoduplex
T3 construct: nearly all 210 residues of each protomer observed, with the exception of residues 1 through 7; hexahistidine tag (thrombin-cleavable) (cleaved yes); made in house
Procedure: To test the hypothesis that these bile salts directly bind to MtrR and potentially derepress gene expression by interfering with the DNA binding activity of MtrR, MtrR-mtrC promoter interactions were tested in the presence and absence of different concentrations of several bile salts. […] It is important to note that this is a competition assay that, due to its experimental design, requires the use of 3 μM DNA and 4 to 10 μM MtrR dimer. Consequently, this means that ∼99.9% of all DNA is MtrR bound.
Complementary oligodeoxynucleotides containing the MtrR binding site from the mtrC promoter (top strand, 5′-[sequence]-3′; an unusual pseudo-direct repeat is underlined) were annealed by heating an equimolar mixture of the top and bottom strands at 95°C for 5 min, followed by slow cooling to room temperature. Binding reactions were carried out in 20-μl volumes of binding buffer (20 mM Tris [pH 8.0], 200 mM NaCl, 10% glycerol, and 1 mM TCEP) containing 1 μg oligoduplex, 1 μg poly(dI-dC), and 4 to 10 μg MtrR. After a 20-minute incubation at room temperature, the preformed complex was incubated with or without various concentrations of selected bile salts at room temperature for an additional 10 min. […] The gels were stained with ethidium bromide and visualized and analyzed with an Alpha Innotech gel documentation instrument. The intensities of free DNA were measured with ImageJII ([61], [62]).

[4] = system: mtrCp-lacZ in FA19 (wild type); assay: β-Galactosidase assay of mtrCp-lacZ fusion, strain FA19; assay type: cell-based, Neisseria gonorrhoeae
Description: (§1) To determine if sublethal concentrations of bile salts could relieve MtrR-mediated repression of mtrC (and, by inference, the mtrCDE operon), a translational fusion of the promoter region of mtrC to lacZ was used. This fusion system was made in the wild-type (FA19) background ([41]) and cloned into mtrR deletion mutant strain JF1. Using the mtrCp-lacZ fusion, the β-galactosidase activity of the strains grown in the presence or absence of the bile salt chenodeoxycholate, taurodeoxycholate, or glycocholate was measured. The β-galactosidase levels were determined from strains grown overnight on GC agar supplemented with the bile salt at concentrations 4-fold below their specific MICs to ensure that the concentration of each bile salt was in the same biological range (the bile salt concentrations are listed in Table 2).
N. gonorrhoeae strains FA19 (wild type) and JF1 (FA19 ΔmtrR) containing a translational mtrCp-lacZ fusion with the proAB locus were used to assess the ability of bile salts to induce mtrC expression; the construction of these strains has been described previously ([41]). The MIC of bile salts for each strain used in the β-galactosidase assay was determined using a 2-fold agar dilution method ([32]). Gonococci were grown overnight on GC agar (Difco Laboratories) supplemented with a bile salt (glycocholate, chenodeoxycholate, or taurodeoxycholate) at concentrations that were 4-fold below the MIC. After overnight growth at 37°C under 3.8% (vol/vol) CO2, the bacteria were scraped from the agar plate, resuspended in 1 ml phosphate-buffered saline (pH 7.4), and lysed by freeze-thawing three times, after which the cell debris was pelleted by centrifugation. The lysate was then used to determine β-galactosidase levels as described previously ([63]). All experiments were performed in triplicate with at least three biological replicates conducted on different days.

[5] = system: mtrCp-lacZ in JF1 (FA19 ΔmtrR); assay type: cell-based, Neisseria gonorrhoeae
Description: as §1
N. gonorrhoeae strains FA19 (wild type) and JF1 (FA19 ΔmtrR) containing a translational mtrCp-lacZ fusion with the proAB locus were used to assess the ability of bile salts to induce mtrC expression; the construction of these strains has been described previously ([41]). The MIC of bile salts for each strain used in the β-galactosidase assay was determined using a 2-fold agar dilution method ([32]). […]

T2 sequence (P39897 whole entry): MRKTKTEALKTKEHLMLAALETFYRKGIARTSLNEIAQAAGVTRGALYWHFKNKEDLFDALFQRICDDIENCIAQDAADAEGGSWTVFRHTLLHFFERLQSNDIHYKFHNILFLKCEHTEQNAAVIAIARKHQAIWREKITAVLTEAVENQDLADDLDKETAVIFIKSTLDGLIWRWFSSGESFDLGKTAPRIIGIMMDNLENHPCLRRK
T1 sequence (P39897 whole entry): as above
T3 sequence (P39897 whole entry, one chain of several): as the sequence (P39897 whole entry) above

In the case of `C[C@H](CCC(=O)NCC(=O)O)[C@H]1CC[C@H]2[C@@H]3[C@H](O)C[C@@H]4C[C@H](O)CC[C@]4(C)[C@H]3C[C@H](O)[C@]12C` [Glycocholate, glycocholate], the “Kd of bile salt binding to WT MtrR” value [1] was “no measurable binding”, the “Fold increase in Kd” value ([2]; 1 mM bile salt) was 1.2 and the “Fold increase in Kd” value ([2]; 1 mM bile salt, listed as glycocholate) was “no effect”. The “Fold increase in Kd” value ([2]; 5 mM bile salt) was 5, the “Fold increase in Kd” value ([2]; 10 mM bile salt) was 6 and the “Concentration that disrupts the preformed MtrR-DNA complex” value [3] was greater than 40 mM. The “MtrR-dependent derepression of the mtrC promoter” value ([4]; FA19 compared with ΔmtrR strain JF1, sublethal bile salt) was “failed to exhibit MtrR-dependent derepression”, the “Fold increase of mtrCp-lacZ activity” value ([4]; strain FA19, grown on GC agar with bile salt 4-fold below MIC versus normal agar, mM concentration in parentheses in the cell) was 1.43 (0.48) and the “Fold increase of mtrCp-lacZ activity” value [5] was 2.11 (0.96).
